Reference: patent US20100160454A1, “ANTIMICROBIAL AGENTS, COMPOSITIONS AND PRODUCTS CONTAINING THE SAME, AND METHODS OF USING THE COMPOSITIONS AND PRODUCTS” (Eastman Chemical Company, priority 2008, published 2010)

How the values were obtained:
Assay in all cases: Microbiological challenge testing in BPW broth, graded subculture counts
Type in all cases: cell-based
[1] = system: Bacillus subtilis Wild type
Description: (§1) The microorganisms in the table below were used in challenge tests. They were either ATCC (American Type Culture Collection) or “wild type” as indicated. Wild type organisms were problematic organisms previously isolated from chemical products.
(§2) All of the microorganisms were grown in Tryptose Soy Broth (TSB), DIFCO™ available from Becton, Dickinson and Company, containing 1% dextrose. Candida albicans and Aspergillus niger, were incubated at 22° C.+/−2° C. for at least 96 hours. All bacteria were incubated at 35° C.+/−2° C. in a humidified incubator for at least 96 hours.
(§3) The following procedure was followed to determine the amount of each challenge material (inoculum broth) needed to produce a 10^8 CFU/mL challenge, which is equivalent to a final test-sample microbial concentration of 10^5 to 10^6 CFU/mL (CFU=colony forming units).
(§4) Using a sterile pipette, 1 mL of the growth from each TSB culture was transferred into tubes of 9 mL buffered water (pH 7.2 phosphate buffer) and mixed thoroughly. This was repeated to make serial 1:10 dilutions. Then, 0.1 mL of each sample and dilution was inoculated onto agar plates to produce the equivalent of a further 1:10 dilution. (C. albicans and A. niger were inoculated onto SABD and bacteria were inoculated onto Plate Count Agar (PCA), DIFCO™ available from Becton, Dickinson and Company.) (The normal volume plated for most samples was 0.1 mL. Some samples that could be very low in micro-organisms (high dilutions) were plated using 0.5 mL of inoculum, in order to produce reproducible counts.) The samples were distributed on the plates using the spread-plate technique. The spread-plate technique is carried out by spreading the sample over the entire plate surface using a sterile spreading rod while rotating the plate with a rotary auto-plater. After the inoculum was absorbed completely by the agar, each plate was inverted and incubated (fungi at 22° C.+/−2° C. and bacteria at 35° C.+/−2° C.).
(§5) After incubation for at least 48 hours, colonies that had developed on the agar plates were counted (CFU) and recorded with the corresponding dilution. If counting had to be delayed temporarily, plates were refrigerated, preferably no more than 24 hours, until they could be counted. The number of CFU/mL was determined by multiplying the plate count by the dilution factor of the plate counted.
(§6) Turbidity in Nepholemetric Turbidity Units (NTU) was measured for each serial dilution using the HF-Micro 100 Model Turbidimeter. For each microorganism, the plate counts were compared to the turbidity readings.
(§7) Control substrates (“broth alone”) were prepared for each microorganism separately in triplicate by adding 13.5 mL of Buffered Peptone Water broth (BPW) containing 1% dextrose to each 20-mL glass tube, then adding 1.5 mL challenge material to produce a final concentration at time zero of 10^5 to 10^6 CFU/mL and a total volume of 15 mL.
(§8) Test sample substrates were prepared containing each test material listed below at the concentrations shown for challenge testing with each microorganism separately. Sample substrates were prepared in triplicate, except the substrates containing butoxyethanol which were prepared in duplicate. Substrates were prepared by adding BPW containing 1% dextrose to each 20-mL glass tube, then adding the test material in the amount appropriate to achieve the desired weight/volume percent and to achieve a total volume of BPW plus dextrose plus test material of 13.5 mL. Then 1.5 mL challenge material was added to produce a final concentration at time zero of 10^5 to 10^6 CFU/mL and a total test sample substrate volume of 15 mL.

[2] = system: Streptococcus mutans ATCC 35668
Description: as §1, §2, §3, §4, §5, §6, §7, §8

[3] = system: Pseudomonas aeruginosa Wild type; settings: P. aeruginosa
Description: as §1, §2, §3, §4, §5, §6, §7, §8

[4] = system: Aspergillus niger Wild type; settings: A. niger
Description: as §1, §2
(§9) Candida albicans and Aspergillus niger were also grown on Sabouraud Dextrose Agar (SABD) at 22° C. for 7 to 14 days or until full sporulation was achieved.
as §3, §4, §5, §6
Aspergillus niger cultures were harvested and spores dislodged from the SABD on which they were grown by rubbing the growth gently with a sterile inoculating loop. The spores were then mixed into the broth culture that had been incubated with a sterile magnetic stir bar to reduce pellicle formation. The spore-culture mixture was filtered repeatedly through sterile, nonabsorbent cotton and harvested repeatedly, adjusting vegetative cells and spores to a level of 1.0×10^8. A hemocytometer was used to verify the final challenge concentration.
as §7

[5] = system: Candida albicans Wild type; settings: C. albicans
Description: as §1, §2, §9, §3, §4, §5, §6
On the day of challenge, the Candida albicans inoculum broth was poured through nonabsorbent sterile gauze and centrifuged. The […] was then diluted with buffered water (pH 7.2 phosphate buffer) until the desired turbidity was reached. Using a hemocytometer, a determination was made whether the challenge contained the desired concentration. Dilutions were made through 1.0×10^8 and three SABD spread plates were inoculated with 0.1 mL of each dilution. The plates were incubated for at least 48 hours and challenge counts were confirmed.
as §7

Structure (SMILES): OCC1CCCC(CO)C1 (stereo not drawn) [1,3-CHDM, 1,3-cyclohexanedimethanol]
- B. subtillis growth grade, 3 day ([1]; 0.5% weight/volume): 4 (1000 to 10,000 colonies countable (thus 10,000 CFU/mL to 100,000 CFU/mL))
- B. subtillis growth grade, 14 day ([1]; 0.5% weight/volume): 4 (1000 to 10,000 colonies countable (thus 10,000 CFU/mL to 100,000 CFU/mL))
- B. subtillis growth grade, 30 day ([1]; 0.5% weight/volume): 4 (1000 to 10,000 colonies countable (thus 10,000 CFU/mL to 100,000 CFU/mL))
- B. subtillis growth grade, 3 day ([1]; 1.25% weight/volume): 4 (1000 to 10,000 colonies countable (thus 10,000 CFU/mL to 100,000 CFU/mL))
- B. subtillis growth grade, 14 day ([1]; 1.25% weight/volume): 4 (1000 to 10,000 colonies countable (thus 10,000 CFU/mL to 100,000 CFU/mL))
- B. subtillis growth grade, 30 day ([1]; 1.25% weight/volume): 4 (1000 to 10,000 colonies countable (thus 10,000 CFU/mL to 100,000 CFU/mL))
- B. subtillis growth grade, 3 day ([1]; 2.5% weight/volume): 4 (1000 to 10,000 colonies countable (thus 10,000 CFU/mL to 100,000 CFU/mL))
- B. subtillis growth grade, 14 day ([1]; 2.5% weight/volume): 4 (1000 to 10,000 colonies countable (thus 10,000 CFU/mL to 100,000 CFU/mL))
- B. subtillis growth grade, 30 day ([1]; 2.5% weight/volume): 4 (1000 to 10,000 colonies countable (thus 10,000 CFU/mL to 100,000 CFU/mL))
- B. subtillis growth grade, 3 day ([1]; 5.0% weight/volume): 4 (1000 to 10,000 colonies countable (thus 10,000 CFU/mL to 100,000 CFU/mL))
- B. subtillis growth grade, 14 day ([1]; 5.0% weight/volume): 4 (1000 to 10,000 colonies countable (thus 10,000 CFU/mL to 100,000 CFU/mL))
- B. subtillis growth grade, 30 day ([1]; 5.0% weight/volume): 4 (1000 to 10,000 colonies countable (thus 10,000 CFU/mL to 100,000 CFU/mL))
- S. mutans growth grade, 3 day ([2]; 0.5% weight/volume): 5 (More than 10,000 colonies estimated (thus more than 100,000 CFU/mL))
- S. mutans growth grade, 13 day ([2]; 0.5% weight/volume): 4 (1000 to 10,000 colonies countable (thus 10,000 CFU/mL to 100,000 CFU/mL))
- S. mutans growth grade, 30 day ([2]; 0.5% weight/volume): 4 (1000 to 10,000 colonies countable (thus 10,000 CFU/mL to 100,000 CFU/mL))
- S. mutans growth grade, 3 day ([2]; 1.25% weight/volume): 4 (1000 to 10,000 colonies countable (thus 10,000 CFU/mL to 100,000 CFU/mL))
- S. mutans growth grade, 13 day ([2]; 1.25% weight/volume): 4 (1000 to 10,000 colonies countable (thus 10,000 CFU/mL to 100,000 CFU/mL))
- S. mutans growth grade, 30 day ([2]; 1.25% weight/volume): 4 (1000 to 10,000 colonies countable (thus 10,000 CFU/mL to 100,000 CFU/mL))
- S. mutans growth grade, 3 day ([2]; 2.5% weight/volume): 4 (1000 to 10,000 colonies countable (thus 10,000 CFU/mL to 100,000 CFU/mL))
- S. mutans growth grade, 13 day ([2]; 2.5% weight/volume): 4 (1000 to 10,000 colonies countable (thus 10,000 CFU/mL to 100,000 CFU/mL))
- S. mutans growth grade, 30 day ([2]; 2.5% weight/volume): 4 (1000 to 10,000 colonies countable (thus 10,000 CFU/mL to 100,000 CFU/mL))
- S. mutans growth grade, 3 day ([2]; 5.0% weight/volume): 2 (52 to 100 colonies counted (thus 520 to 1000 CFU/mL))
- S. mutans growth grade, 13 day ([2]; 5.0% weight/volume): 0
- S. mutans growth grade, 30 day ([2]; 5.0% weight/volume): 0
- Grade ([3]; 0.5% (wt/vol), 3 day): 5 (More than 10,000 colonies estimated (thus more than 100,000 CFU/mL))
- Grade ([3]; 0.5% (wt/vol), 13 day): 5 (More than 10,000 colonies estimated (thus more than 100,000 CFU/mL))
- Grade ([3]; 0.5% (wt/vol), 30 day): 5 (More than 10,000 colonies estimated (thus more than 100,000 CFU/mL))
- Grade ([3]; 1.25% (wt/vol), 3 day): 4 (1000 to 10,000 colonies countable (thus 10,000 CFU/mL to 100,000 CFU/mL))
- Grade ([3]; 1.25% (wt/vol), 13 day): 4 (1000 to 10,000 colonies countable (thus 10,000 CFU/mL to 100,000 CFU/mL))
- Grade ([3]; 1.25% (wt/vol), 30 day): 4 (1000 to 10,000 colonies countable (thus 10,000 CFU/mL to 100,000 CFU/mL))
- Grade ([3]; 2.5% (wt/vol), 3 day): 4 (1000 to 10,000 colonies countable (thus 10,000 CFU/mL to 100,000 CFU/mL))
- Grade ([3]; 2.5% (wt/vol), 13 day): 4 (1000 to 10,000 colonies countable (thus 10,000 CFU/mL to 100,000 CFU/mL))
- Grade ([3]; 2.5% (wt/vol), 30 day): 4 (1000 to 10,000 colonies countable (thus 10,000 CFU/mL to 100,000 CFU/mL))
- Grade ([3]; 5.0% (wt/vol), 3 day): 4 (1000 to 10,000 colonies countable (thus 10,000 CFU/mL to 100,000 CFU/mL))
- Grade ([3]; 5.0% (wt/vol), 13 day): 4 (1000 to 10,000 colonies countable (thus 10,000 CFU/mL to 100,000 CFU/mL))
- Grade ([3]; 5.0% (wt/vol), 30 day): 4 (1000 to 10,000 colonies countable (thus 10,000 CFU/mL to 100,000 CFU/mL))
- Grade ([4]; 0.5% (wt/vol), 3 day): 5
- Grade ([4]; 0.5% (wt/vol), 13 day): 5
- Grade ([4]; 0.5% (wt/vol), 30 day): 5
- Grade ([4]; 1.25% (wt/vol), 3 day): 5
- Grade ([4]; 1.25% (wt/vol), 13 day): 4
- Grade ([4]; 1.25% (wt/vol), 30 day): 4
- Grade ([4]; 2.5% (wt/vol), 3 day): 4
- Grade ([4]; 2.5% (wt/vol), 13 day): 4
- Grade ([4]; 2.5% (wt/vol), 30 day): 4
- Grade ([4]; 5.0% (wt/vol), 3 day): 2 (Countable (10 to 100 colonies))
- Grade ([4]; 5.0% (wt/vol), 13 day): 2 (Countable (10 to 100 colonies))
- Grade ([4]; 5.0% (wt/vol), 30 day): 4
- Grade ([5]; 0.5% (wt/vol), 3 day): 4 (1000 to 10,000 colonies countable (thus 10,000 CFU/mL to 100,000 CFU/mL))
- Grade ([5]; 0.5% (wt/vol), 14 day): 4 (1000 to 10,000 colonies countable (thus 10,000 CFU/mL to 100,000 CFU/mL))
- Grade ([5]; 0.5% (wt/vol), 30 day): 4 (1000 to 10,000 colonies countable (thus 10,000 CFU/mL to 100,000 CFU/mL))
- Grade ([5]; 1.25% (wt/vol), 3 day): 4 (1000 to 10,000 colonies countable (thus 10,000 CFU/mL to 100,000 CFU/mL))
- Grade ([5]; 1.25% (wt/vol), 14 day): 4 (1000 to 10,000 colonies countable (thus 10,000 CFU/mL to 100,000 CFU/mL))
- Grade ([5]; 1.25% (wt/vol), 30 day): 4 (1000 to 10,000 colonies countable (thus 10,000 CFU/mL to 100,000 CFU/mL))
- Grade ([5]; 2.5% (wt/vol), 3 day): 4 (1000 to 10,000 colonies countable (thus 10,000 CFU/mL to 100,000 CFU/mL))
- Grade ([5]; 2.5% (wt/vol), 14 day): 4 (1000 to 10,000 colonies countable (thus 10,000 CFU/mL to 100,000 CFU/mL))
- Grade ([5]; 2.5% (wt/vol), 30 day): 4 (1000 to 10,000 colonies countable (thus 10,000 CFU/mL to 100,000 CFU/mL))
- Grade ([5]; 5.0% (wt/vol), 3 day): 0
- Grade ([5]; 5.0% (wt/vol), 14 day): 2 (52 to 100 colonies counted (thus 520 to 1000 CFU/mL))
- Grade ([5]; 5.0% (wt/vol), 30 day): 3 (100 to 1000 colonies (thus 1000 to 10,000 CFU/mL))
